The values below come from ChEMBL document CHEMBL3286130, “8-Substituted 2-alkynyl-N(9)-propargyladenines as A2A adenosine receptor antagonists” (Bioorg Med Chem, 2014).

Calls of active or inactive are those of the source. The rule behind the calls is not given here. Where only a bound is given, the exact number is not on record here.

Test [1] addresses Adenosine receptor A2a (Rattus norvegicus) (UniProt P30543). In words: Potency index, ratio of istradefylline IC50 to compound IC50 for adenosine A2A receptor in 5-HT-treated Wistar rat femoral vein assessed as inhibition of 2-octyn-1-yladenosine-induced vasodilation.
Test [2] concerns the target Adenosine receptor A2a (Rattus norvegicus, UniProt P30543). In words: Antagonist activity at adenosine A2A receptor in 5-HT-treated Wistar rat femoral vein assessed as inhibition of 2-octyn-1-yladenosine-induced vasodilation incubated for 10 mins prior to addition of 5-HT.
The test system of test [3] is Mus musculus. Briefly: Anticataleptogenic activity in ddY mouse assessed as reduction in haloperidol-induced catelepsy at 3 mg/kg, po measured after 1 to 7 hrs. Format: functional, organism-based. On the set-up: dose 3 mg/kg.
Test [4] concerns Mus musculus. In words: Anticataleptogenic activity in po dosed ddY mouse assessed as reduction in haloperidol-induced catelepsy measured after 5 hrs. It is filed as functional. As to conditions: for minimal effective dose: read-out: MED.
Test [5] deals with Rattus norvegicus. Briefly: Antiparkinsonian activity in unilateral 6-hydroxydopamine-lesioned Sprague-Dawley rat assessed as induction of stereotyped behavior at 3 mg/kg, po measured for 15 mins. Format: functional, organism-based. Also on record: dose 3 mg/kg.
Test [6] deals with Adenosine receptor A2a (Homo sapiens, UniProt P29274). Briefly: biochemical.
Description: Displacement of [3H]-CGS-21680 from human adenosine A2A receptor expressed in HEK293 cells after 90 mins
The test system of test [7] is Rattus norvegicus. Briefly: Antiparkinsonian activity in unilateral 6-hydroxydopamine-lesioned Sprague-Dawley rat assessed as potentiation of L-DOPA-induced turning behavior at 3 mg/kg, po measured for 15 mins. It is filed as functional, organism-based. Also on record: dose 3 mg/kg.

Chain of Adenosine receptor A2a (Rattus norvegicus, UniProt P30543) (P30543 whole entry): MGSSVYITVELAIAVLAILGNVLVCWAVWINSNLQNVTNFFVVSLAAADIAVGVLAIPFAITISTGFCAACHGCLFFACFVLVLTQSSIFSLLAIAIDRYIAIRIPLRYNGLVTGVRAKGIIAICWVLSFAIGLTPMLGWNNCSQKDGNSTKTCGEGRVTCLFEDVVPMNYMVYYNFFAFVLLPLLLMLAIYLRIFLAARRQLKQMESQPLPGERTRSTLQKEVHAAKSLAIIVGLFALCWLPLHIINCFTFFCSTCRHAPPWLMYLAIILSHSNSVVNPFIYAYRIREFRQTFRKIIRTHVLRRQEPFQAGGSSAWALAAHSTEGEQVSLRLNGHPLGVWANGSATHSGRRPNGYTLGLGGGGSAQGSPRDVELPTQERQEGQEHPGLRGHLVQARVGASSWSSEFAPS
Chain of Adenosine receptor A2a (Homo sapiens, UniProt P29274) (P29274 whole entry): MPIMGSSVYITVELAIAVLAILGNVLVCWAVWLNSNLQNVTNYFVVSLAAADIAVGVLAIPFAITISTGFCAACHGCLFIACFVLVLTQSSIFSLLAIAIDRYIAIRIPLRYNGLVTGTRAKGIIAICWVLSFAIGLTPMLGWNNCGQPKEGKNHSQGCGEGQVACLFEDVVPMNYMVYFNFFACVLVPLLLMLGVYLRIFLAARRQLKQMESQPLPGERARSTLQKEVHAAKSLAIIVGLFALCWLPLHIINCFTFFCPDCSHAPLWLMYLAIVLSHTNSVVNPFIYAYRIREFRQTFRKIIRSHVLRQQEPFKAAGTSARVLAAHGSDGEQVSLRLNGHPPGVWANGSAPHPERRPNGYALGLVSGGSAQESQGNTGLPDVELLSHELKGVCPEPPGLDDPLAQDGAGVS
Chain of Adenosine receptor A2a (Rattus norvegicus) (P30543 whole entry): as the sequence (P30543 whole entry) above

On to `C#CCn1c(-c2ccco2)nc2c(N)nc(C#CC3(O)CCCCC3)nc21`, for which the Ratio IC50 in test [1] was found to be 570. Further, the IC50 on Adenosine receptor A2a [2] worked out at 0.4 nM. Consider `CCCCCCC#Cc1nc(N)c2ncn(C)c2n1`, for which, on Adenosine receptor A2a [2], the concentration for half-maximal inhibition (IC50) came out at 9000 nM. Regarding `C#CCn1c(-n2nccn2)nc2c(N)nc(C#CCCCCCC)nc21`, the IC50 on Adenosine receptor A2a [2] is 1.9 nM. For `CCCCCCC#Cc1nc(N)c2ncn(Cc3ccccc3)c2n1`, at Adenosine receptor A2a [2], the concentration for half-maximal inhibition (IC50) is more than 10000 nM. With `C#CCn1c(-c2ccccc2)nc2c(N)nc(C#CCCCCCC)nc21`, at Adenosine receptor A2a [2], the half-inhibitory concentration (IC50) stood at 75.5 nM. Turning to `CCn1c(=O)c2c(nc(/C=C/c3ccc(OC)c(OC)c3)n2C)n(CC)c1=O` [ISTRADEFYLLINE], the outcome in the test with Mus musculus [3] was Active. Further, in the test on Mus musculus [4], the Activity entry was “Dose-dependent effect” and the minimal effective dose came out at 3 mg/kg. Take `C#CCn1c(Cl)nc2c(N)nc(C#CC3(O)CCCCC3)nc21`: the half-inhibitory concentration (IC50) on Adenosine receptor A2a [2] worked out at 3 nM. In the case of `CCCCCCC#Cc1nc(N)c2ncn(CCC)c2n1`, the IC50 at Adenosine receptor A2a [2] was more than 10000 nM. With `C#CCn1cnc2c(N)nc(C#CCCCCCC)nc21`, the concentration for half-maximal inhibition (IC50) at Adenosine receptor A2a [2] stood at 200 nM. As for `C#CCn1c(Br)nc2c(N)nc(C#CC3(O)CCCCC3)nc21`, the IC50 on Adenosine receptor A2a [2] stood at 0.5 nM. Consider `CCCCCCC#Cc1nc(N)c2ncn(CCO)c2n1`, for which the IC50 on Adenosine receptor A2a [2] is more than 10000 nM.

In the case of `C#CCn1c(-c2cccc(F)c2)nc2c(N)nc(C#CCCCCCC)nc21`, the IC50 at Adenosine receptor A2a [2] was 22.8 nM. Consider `CCCCCCC#Cc1nc(N)c2ncn(C3CCCC3)c2n1`, for which the IC50 on Adenosine receptor A2a [2] is more than 10000 nM.

As to `C#CCn1cnc2c(N)nc(C#CC3(O)CCCCC3)nc21`, the IC50 on Adenosine receptor A2a [2] was found to be 97.3 nM.

For the molecule `C#CCn1c(Cl)nc2c(N)nc(C#CCCCCCC)nc21`, on Adenosine receptor A2a [2], the IC50 stood at 6 nM.

Turning to `C#CCn1c(-c2ccco2)nc2c(N)nc(C#CCCCCCC)nc21`, the IC50 at Adenosine receptor A2a [2] amounted to 3.6 nM. For `C=CCn1cnc2c(N)nc(C#CCCCCCC)nc21`, at Adenosine receptor A2a [2], the IC50 is more than 10000 nM. On to `CCCCCCC#Cc1nc(N)c2ncn(CC)c2n1`, for which the half-maximal inhibitory concentration (IC50) at Adenosine receptor A2a [2] was 6700 nM. Turning to `CCCCCCC#Cc1nc(N)c2ncn(CC#N)c2n1`, the 50% inhibitory concentration (IC50) at Adenosine receptor A2a [2] was more than 10000 nM. Consider `C#CCn1c(Br)nc2c(N)nc(C#CCCCCCC)nc21`, for which the outcome in the test with Mus musculus [3] and with Rattus norvegicus [7] was Active. In addition, the result in the test with Rattus norvegicus [5] was inactive. For the same molecule, the affinity on Adenosine receptor A2a [6], expressed as Ki, was 0.56 nM. For the same molecule, the Activity result in the test on Mus musculus [4] was “Dose-dependent effect”. Besides, the minimal effective dose in the test on Mus musculus [4] stood at 3 mg/kg. The IC50 on Adenosine receptor A2a [2] came out at 5.1 nM.
